Experimental data from patent publication US20240122816A1, “ARTICLES FOR INDIRECT TRANSFER OF COSMETIC ACTIVES TO SKIN” (SYMRISE AG, priority 2019, published 2024).

Assay: Analysis of the bisabolol content on the skin (GC/MS of alcohol-pad extract) after transfer from laundered clothing article
Type: in vivo, human
Source text: Protocol: • One cotton sock from the laundry described previously was inverted to expose the inner surface. • Left arm of a subject was washed with unfragranced soap followed by 95% alcohol wipe to remove any foreign material and soluble oils. • Rubbed previously laundered cotton sock with Symrelief onto subject's […]. Seven times on one side then 8 times on the other sock surface.
(§1) Protocol: • Applied 3 commercially available alcohol pads (which had been soaked in 95% ethanol) onto arm area. Allowed to dry completely. • The alcohol wipe pads were transferred into 1 oz glass jar and added 5 grams diethylether and allowed to extract for 2 hours. • Ether extract was concentrated to 100 μl under a nitrogen stream. • 2.5 μl was manually injected into a GC/MS equipt with a carbowax column and run with a splitless method. • Bisabolol peak was identified in the sample by the characteristic ions in the mass spectrum. • The control arm was treated in the same manner with no identified bisabolol.
Protocol: • One of a pair of cotton/poly socks from the laundry described previously was given to a test subject removed and blind codded. The sock was paired with a blind codded sock that was un-laundered. • The ventral surface of the subjects ankles were washed with unfragranced soap followed by 95% alcohol wipe to remove any foreign material and soluble oils. • The pair of socks were worn by a test subject for 8 hours in a normal use setting.
as §1, with “•” for “Protocol: •”, “12” for “3”, “bisabolol. […]” for “bisabolol.”

Measured: Bisabolol peak in skin wipe extract (GC/MS, characteristic ions)

CC(C)=CCC[C@](C)(O)C1CC=C(C)CC1 (stereo partly drawn) [Bisabolol, bisabolol]
identified: laundered cotton sock (softener with 5% Symcap G1 Bisabolol slurry) rubbed onto subject's arm, 7 and 8 times, 3 alcohol pads | laundered cotton/poly sock worn for 8 hours in normal use, 12 alcohol pads | laundered thermal shirt worn for 8 hours in normal use, upper arms, 12 alcohol pads
